# Source: PMC5218480 (PLoS ONE, 2017)
# Test system: MV-4-11 cells
# Test: Gene expression microarray analysis (Affymetrix PrimeView) and GSEA
# Format: cell-based, human
# Parameters: RFU PODN (11730768_x_at) / Fold change /veh PODN (11730768_x_at) / RFU LINC00158 (11744669_a_at) / Fold change /veh LINC00158 (11744669_a_at) / RFU DUSP10 (11751237_a_at) / Fold change /veh DUSP10 (11751237_a_at) / RFU ID3 (11757404_x_at) / Fold change /veh ID3 (11757404_x_at) / RFU PLEKHG5 (11737974_s_at) / Fold change /veh PLEKHG5 (11737974_s_at) / RFU LRRC4B (11730491_at) / Fold change /veh LRRC4B (11730491_at) / RFU GIMAP4 (11747438_a_at) / Fold change /veh GIMAP4 (11747438_a_at) / RFU KRT8 (11758183_x_at) / Fold change /veh KRT8 (11758183_x_at) / RFU CNN1 (11734310_a_at) / Fold change /veh CNN1 (11734310_a_at) / RFU VPS37D (11726825_at) / Fold change /veh VPS37D (11726825_at) / RFU C10orf10 (11716522_x_at) / Fold change /veh C10orf10 (11716522_x_at) / RFU KIR2DL2 /// KIR2DL4 /// KIR2DL5A /// KIR2DL5B /// KIR2DS1 /// KIR2DS2 /// KIR2DS3 /// KIR2DS4 /// KIR3DL3 /// KIR3DL3 /// KIR3DS1 (11738374_at) / Fold change /veh KIR2DL2 /// KIR2DL4 /// KIR2DL5A /// KIR2DL5B /// KIR2DS1 /// KIR2DS2 /// KIR2DS3 /// KIR2DS4 /// KIR3DL3 /// KIR3DL3 /// KIR3DS1 (11738374_at) / RFU C1QL1 (11718748_at) / Fold change /veh C1QL1 (11718748_at) / RFU TMPRSS4 (11747572_a_at) / Fold change /veh TMPRSS4 (11747572_a_at) / RFU HAMP (11756126_x_at) / Fold change /veh HAMP (11756126_x_at) / RFU RNFT2 (11725882_a_at) / Fold change /veh RNFT2 (11725882_a_at) / RFU NR4A2 (11747474_a_at) / Fold change /veh NR4A2 (11747474_a_at) / RFU ABCC12 (11746883_a_at) / Fold change /veh ABCC12 (11746883_a_at) / RFU TMEM136 (11760407_x_at) / Fold change /veh TMEM136 (11760407_x_at) / RFU CLDN22 /// WWC2 (11732394_at) / Fold change /veh CLDN22 /// WWC2 (11732394_at) / RFU HLA-DPB1 (11760878_x_at) / Fold change /veh HLA-DPB1 (11760878_x_at) / RFU SPINT1 (11716480_a_at) / Fold change /veh SPINT1 (11716480_a_at) / RFU GAP43 (11754022_s_at) / Fold change /veh GAP43 (11754022_s_at) / RFU A4GNT (11735810_at) / Fold change /veh A4GNT (11735810_at) / RFU PRB3 (11715151_x_at) / Fold change /veh PRB3 (11715151_x_at) / RFU TUBB4B (11761932_at) / Fold change /veh TUBB4B (11761932_at) / RFU CAPN14 (11732068_a_at) / Fold change /veh CAPN14 (11732068_a_at) / RFU TMCC2 (11721928_a_at) / Fold change /veh TMCC2 (11721928_a_at) / RFU IRGQ (11745062_a_at) / Fold change /veh IRGQ (11745062_a_at) / RFU FAM174B (11720279_a_at) / Fold change /veh FAM174B (11720279_a_at) / RFU TMPRSS4 (11748680_a_at) / Fold change /veh TMPRSS4 (11748680_a_at) / RFU FAM212B (11763350_a_at) / Fold change /veh FAM212B (11763350_a_at) / RFU PLEKHG5 (11743358_a_at) / Fold change /veh PLEKHG5 (11743358_a_at) / RFU ZSCAN30 (11745921_a_at) / Fold change /veh ZSCAN30 (11745921_a_at) / RFU CMKLR1 (11741424_a_at) / Fold change /veh CMKLR1 (11741424_a_at) / RFU LOC101060620 /// MAPK8IP1 (11723275_at) / Fold change /veh LOC101060620 /// MAPK8IP1 (11723275_at) / RFU SPTSSB (11747773_x_at) / Fold change /veh SPTSSB (11747773_x_at) / RFU PRSS12 (11739890_at) / Fold change /veh PRSS12 (11739890_at) / RFU BIN1 (11741810_x_at) / Fold change /veh BIN1 (11741810_x_at) / RFU WNT11 (11732464_a_at) / Fold change /veh WNT11 (11732464_a_at) / RFU C10orf10 (11716521_a_at) / Fold change /veh C10orf10 (11716521_a_at) / RFU C5orf56 (11738089_at) / Fold change /veh C5orf56 (11738089_at) / RFU CYB561 (11721691_x_at) / Fold change /veh CYB561 (11721691_x_at) / RFU ANKRD19P (11752326_a_at) / Fold change /veh ANKRD19P (11752326_a_at) / RFU OR2T12 /// OR2T33 /// OR2T8 (11738714_s_at) / Fold change /veh OR2T12 /// OR2T33 /// OR2T8 (11738714_s_at) / RFU VCAN (11748164_a_at) / Fold change /veh VCAN (11748164_a_at) / RFU JSRP1 (11732532_at) / Fold change /veh JSRP1 (11732532_at) / RFU KRTAP10-11 (11738290_x_at) / Fold change /veh KRTAP10-11 (11738290_x_at) / RFU MYO3A (11730013_a_at) / Fold change /veh MYO3A (11730013_a_at) / RFU EBF3 (11725865_a_at) / Fold change /veh EBF3 (11725865_a_at) / RFU CAMK2N1 (11719241_x_at) / Fold change /veh CAMK2N1 (11719241_x_at) / RFU C5orf56 (11738088_a_at) / Fold change /veh C5orf56 (11738088_a_at) / RFU OLFML3 (11715873_a_at) / Fold change /veh OLFML3 (11715873_a_at) / RFU LOC100653217 /// NTM (11731650_a_at) / Fold change /veh LOC100653217 /// NTM (11731650_a_at) / RFU MAPK11 (11762145_a_at) / Fold change /veh MAPK11 (11762145_a_at) / RFU FIZ1 (11724087_x_at) / Fold change /veh FIZ1 (11724087_x_at) / RFU OASL (11726364_x_at) / Fold change /veh OASL (11726364_x_at) / RFU SOX15 (11748057_x_at) / Fold change /veh SOX15 (11748057_x_at) / RFU CD79A (11719716_a_at) / Fold change /veh CD79A (11719716_a_at) / RFU HIST1H1D (11736915_at) / Fold change /veh HIST1H1D (11736915_at) / RFU CASKIN2 (11723855_a_at) / Fold change /veh CASKIN2 (11723855_a_at) / RFU LOC730098 (11760151_x_at) / Fold change /veh LOC730098 (11760151_x_at) / RFU OR4N2 (11742367_at) / Fold change /veh OR4N2 (11742367_at) / RFU PRRT2 (11749266_a_at) / Fold change /veh PRRT2 (11749266_a_at) / RFU SNX32 (11753110_a_at) / Fold change /veh SNX32 (11753110_a_at) / RFU CDHR5 (11726645_a_at) / Fold change /veh CDHR5 (11726645_a_at) / RFU RCAN1 (11760418_a_at) / Fold change /veh RCAN1 (11760418_a_at) / RFU FAM167A (11723789_a_at) / Fold change /veh FAM167A (11723789_a_at) / RFU FAM26E (11764081_at) / Fold change /veh FAM26E (11764081_at) / RFU ISYNA1 (11749810_s_at) / Fold change /veh ISYNA1 (11749810_s_at) / RFU ACY1 (11761880_at) / Fold change /veh ACY1 (11761880_at) / RFU 11764098_at / Fold change /veh 11764098_at / RFU SAMD14 (11745864_x_at) / Fold change /veh SAMD14 (11745864_x_at) / RFU NPB (11741838_a_at) / Fold change /veh NPB (11741838_a_at) / RFU TMPRSS6 (11731388_a_at) / Fold change /veh TMPRSS6 (11731388_a_at) / RFU KRTAP10-2 (11738614_at) / Fold change /veh KRTAP10-2 (11738614_at) / RFU ARHGAP8 /// PRR5-ARHGAP8 (11727945_x_at) / Fold change /veh ARHGAP8 /// PRR5-ARHGAP8 (11727945_x_at) / RFU KRTAP5-7 /// NADSYN1 (11734609_at) / Fold change /veh KRTAP5-7 /// NADSYN1 (11734609_at) / RFU RASL12 (11751679_a_at) / Fold change /veh RASL12 (11751679_a_at) / RFU CDKN2B (11736163_a_at) / Fold change /veh CDKN2B (11736163_a_at) / RFU PRF1 (11729649_at) / Fold change /veh PRF1 (11729649_at) / RFU, ZNF638 /// ZNF638-IT1 / Fold change vs veh, ZNF638 /// ZNF638-IT1 / RFU, PANK3 / Fold change vs veh, PANK3 / RFU, SH3YL1 / Fold change vs veh, SH3YL1 / RFU, ZEB2 / Fold change vs veh, ZEB2 / RFU, NRIP1 / Fold change vs veh, NRIP1 / RFU, PTTG1IP / Fold change vs veh, PTTG1IP / RFU, CAPN2 / Fold change vs veh, CAPN2 / RFU, MED14 / Fold change vs veh, MED14 / RFU, SNORA58 / Fold change vs veh, SNORA58 / RFU, C1orf63 / Fold change vs veh, C1orf63 / RFU, LRRFIP1 / Fold change vs veh, LRRFIP1 / RFU, NDUFAF7 / Fold change vs veh, NDUFAF7 / RFU, SLC12A2 / Fold change vs veh, SLC12A2 / RFU, IBTK / Fold change vs veh, IBTK / RFU, ESF1 / Fold change vs veh, ESF1 / Fold change vs veh, TMEM50B / RFU, TAOK1 / Fold change vs veh, TAOK1 / RFU, ACBD3 / Fold change vs veh, ACBD3 / RFU, TMA16 / Fold change vs veh, TMA16 / RFU, RWDD3 / Fold change vs veh, RWDD3 / RFU, BCAT1 / Fold change vs veh, BCAT1 / RFU, EDEM3 / Fold change vs veh, EDEM3 / RFU, TMEM33 / Fold change vs veh, TMEM33 / RFU, WDR75 / Fold change vs veh, WDR75 / RFU, AHCTF1 / Fold change vs veh, AHCTF1 / RFU, TFRC / Fold change vs veh, TFRC / RFU, ZDHHC17 / Fold change vs veh, ZDHHC17 / RFU, NOM1 / Fold change vs veh, NOM1 / RFU, ARL8B / Fold change vs veh, ARL8B / RFU, ZBTB11 / Fold change vs veh, ZBTB11 / RFU, TAMM41 / Fold change vs veh, TAMM41 / RFU, KIAA1704 /// LOC100996395 / Fold change vs veh, KIAA1704 /// LOC100996395 / RFU, ING1 / Fold change vs veh, ING1 / RFU, TRMT61B / Fold change vs veh, TRMT61B / RFU, FUBP3 / Fold change vs veh, FUBP3 / RFU, TP53 / Fold change vs veh, TP53 / RFU, TNKS2 / Fold change vs veh, TNKS2 / RFU, ZFP14 / Fold change vs veh, ZFP14 / RFU, ACTR2 / Fold change vs veh, ACTR2 / RFU, PPP3R1 / Fold change vs veh, PPP3R1 / RFU, PIK3R1 / Fold change vs veh, PIK3R1 / RFU, HNRNPA1 / Fold change vs veh, HNRNPA1 / RFU, RNF170 / Fold change vs veh, RNF170 / RFU, ZNF28 / Fold change vs veh, ZNF28 / RFU, RNGTT / Fold change vs veh, RNGTT / RFU, OGT / Fold change vs veh, OGT / RFU, BRD1 / Fold change vs veh, BRD1 / RFU, MARS / Fold change vs veh, MARS / RFU, ZNF655 / Fold change vs veh, ZNF655 / RFU, FAHD1 / Fold change vs veh, FAHD1 / RFU, BDP1 / Fold change vs veh, BDP1 / RFU, LRRCC1 / Fold change vs veh, LRRCC1 / RFU, ARID1A / Fold change vs veh, ARID1A / RFU, ZNF146 / Fold change vs veh, ZNF146 / RFU, ZNF330 / Fold change vs veh, ZNF330 / RFU, GPN3 / Fold change vs veh, GPN3 / RFU, C9orf123 / Fold change vs veh, C9orf123 / RFU, N4BP2L2 / Fold change vs veh, N4BP2L2 / RFU, ARFIP1 / Fold change vs veh, ARFIP1 / RFU, FAM179B / Fold change vs veh, FAM179B / RFU, BCL10 / Fold change vs veh, BCL10 / RFU, UHRF1BP1L / Fold change vs veh, UHRF1BP1L / RFU, BET1 / Fold change vs veh, BET1 / RFU, CNOT2 / Fold change vs veh, CNOT2 / RFU, ZNF268 / Fold change vs veh, ZNF268 / Fold change vs veh, ZNF507 / RFU, DGCR2 / Fold change vs veh, DGCR2 / RFU, WDSUB1 / Fold change vs veh, WDSUB1 / Fold change vs veh, HSP90B1 /// MIR3652 / RFU, ADSS / Fold change vs veh, ADSS / RFU, GK / Fold change vs veh, GK / RFU, ZNF148 / Fold change vs veh, ZNF148 / RFU, TAF9 / Fold change vs veh, TAF9 / RFU, SLC1A5 / Fold change vs veh, SLC1A5 / RFU, SLMO2 / Fold change vs veh, SLMO2 / RFU, ABCC4 / Fold change vs veh, ABCC4 / RFU, LOC101060439 /// RAP1B / Fold change vs veh, LOC101060439 /// RAP1B / RFU, RFX7 / Fold change vs veh, RFX7 / RFU, GTPBP10 / Fold change vs veh, GTPBP10 / RFU, CNEP1R1 / Fold change vs veh, CNEP1R1 / RFU, BIVM-ERCC5 /// ERCC5 / Fold change vs veh, BIVM-ERCC5 /// ERCC5 / RFU, ILF3 / Fold change vs veh, ILF3 / RFU 11762660_at / Fold change /veh 11762660_at / RFU VCAN (11757783_s_at) / Fold change /veh VCAN (11757783_s_at) / RFU DDX43 (11728927_at) / Fold change /veh DDX43 (11728927_at) / RFU KRT8 (11758188_x_at) / Fold change /veh KRT8 (11758188_x_at) / RFU NKD1 (11759106_at) / Fold change /veh NKD1 (11759106_at) / RFU SRD5A1 (11742802_a_at) / Fold change /veh SRD5A1 (11742802_a_at) / RFU TPSAB1 /// TPSB2 (11721975_s_at) / Fold change /veh TPSAB1 /// TPSB2 (11721975_s_at) / RFU GSTM3 (11746129_a_at) / Fold change /veh GSTM3 (11746129_a_at) / RFU IL23R (11737362_x_at) / Fold change /veh IL23R (11737362_x_at) / RFU TMEM51 (11727254_a_at) / Fold change /veh TMEM51 (11727254_a_at) / RFU PIWIL2 (11732686_x_at) / Fold change /veh PIWIL2 (11732686_x_at) / RFU ORM1 (11744905_x_at) / Fold change /veh ORM1 (11744905_x_at) / RFU CCDC152 (11743942_at) / Fold change /veh CCDC152 (11743942_at) / RFU ECM1 (11717891_a_at) / Fold change /veh ECM1 (11717891_a_at) / RFU IL23R (11748794_a_at) / Fold change /veh IL23R (11748794_a_at) / RFU TNFAIP8L3 (11732012_x_at) / Fold change /veh TNFAIP8L3 (11732012_x_at) / RFU MBOAT4 (11741988_at) / Fold change /veh MBOAT4 (11741988_at) / RFU 11764193_at / Fold change /veh 11764193_at / RFU TMEM53 (11763286_at) / Fold change /veh TMEM53 (11763286_at) / RFU MAGEB2 (11727129_at) / Fold change /veh MAGEB2 (11727129_at) / RFU TMEM200A (11744735_a_at) / Fold change /veh TMEM200A (11744735_a_at) / RFU CCDC152 (11751479_a_at) / Fold change /veh CCDC152 (11751479_a_at) / RFU FAM211A (11726209_a_at) / Fold change /veh FAM211A (11726209_a_at) / RFU RGS16 (11746705_a_at) / Fold change /veh RGS16 (11746705_a_at) / RFU VCAN (11755009_s_at) / Fold change /veh VCAN (11755009_s_at) / RFU RHOB (11743442_s_at) / Fold change /veh RHOB (11743442_s_at) / RFU RGS16 (11720943_a_at) / Fold change /veh RGS16 (11720943_a_at) / RFU RGS16 (11720944_at) / Fold change /veh RGS16 (11720944_at) / RFU, VPS4B / Fold change vs veh, VPS4B / RFU, CREB1 / Fold change vs veh, CREB1 / RFU, DNAJC13 / Fold change vs veh, DNAJC13 / RFU, GNAQ / Fold change vs veh, GNAQ / RFU, CDK5R1 / Fold change vs veh, CDK5R1 / RFU, ZRANB3 / Fold change vs veh, ZRANB3 / RFU, CUL4A / Fold change vs veh, CUL4A / RFU, CCNY / Fold change vs veh, CCNY / RFU, UFL1 / Fold change vs veh, UFL1 / RFU, COG3 / Fold change vs veh, COG3 / RFU, DIAPH2 / Fold change vs veh, DIAPH2 / RFU, SKA2 / Fold change vs veh, SKA2 / RFU, AFF3 / Fold change vs veh, AFF3 / RFU, LMF1 / Fold change vs veh, LMF1 / RFU, IPO11 / Fold change vs veh, IPO11 / RFU, DFFB / Fold change vs veh, DFFB / RFU, FOXP1 / Fold change vs veh, FOXP1 / RFU, CARD8 / Fold change vs veh, CARD8 / RFU, STRN3 / Fold change vs veh, STRN3 / RFU, ADK / Fold change vs veh, ADK / RFU, RASSF2 / Fold change vs veh, RASSF2 / RFU, WIPF1 / Fold change vs veh, WIPF1 / RFU, LARP1B / Fold change vs veh, LARP1B / RFU, RASA1 / Fold change vs veh, RASA1 / RFU, RB1 / Fold change vs veh, RB1 / RFU, PPFIA1 / Fold change vs veh, PPFIA1 / RFU, MAT2A / Fold change vs veh, MAT2A / RFU, CCT5 / Fold change vs veh, CCT5 / RFU, WDR92 / Fold change vs veh, WDR92 / RFU, CUX1 / Fold change vs veh, CUX1 / RFU, TTC7A / Fold change vs veh, TTC7A / RFU, TMEM135 / Fold change vs veh, TMEM135 / RFU, DEPTOR / Fold change vs veh, DEPTOR / RFU, CPM / Fold change vs veh, CPM / RFU, DNAJB6 / Fold change vs veh, DNAJB6 / RFU, CACNA2D3 / Fold change vs veh, CACNA2D3 / RFU, DTX4 / Fold change vs veh, DTX4 / RFU, TFCP2 / Fold change vs veh, TFCP2 / RFU, GMCL1 /// GMCL1P1 / Fold change vs veh, GMCL1 /// GMCL1P1 / RFU, AEBP2 / Fold change vs veh, AEBP2 / RFU, SNHG1 /// SNORD22 /// SNORD25 /// SNORD26 /// SNORD27 /// SNORD28 /// SNORD29 /// SNORD31 / Fold change vs veh, SNHG1 /// SNORD22 /// SNORD25 /// SNORD26 /// SNORD27 /// SNORD28 /// SNORD29 /// SNORD31 / Fold change (Aza/veh), C12orf56 (ProbeSet 11735607_a_at) / Fold change (ACY-1035/veh), C12orf56 (ProbeSet 11735607_a_at) / Fold change (Aza/veh), FGFR1OP (ProbeSet 11751329_s_at) / Fold change (ACY-1035/veh), FGFR1OP (ProbeSet 11751329_s_at) / Fold change (Aza/veh), VPS36 (ProbeSet 11739960_a_at) / Fold change (ACY-1035/veh), VPS36 (ProbeSet 11739960_a_at) / RFU SYPL1 (11715823_x_at) / Fold change /veh SYPL1 (11715823_x_at) / RFU IGFBP7 (11715501_s_at) / Fold change /veh IGFBP7 (11715501_s_at) / RFU REEP3 (11722064_at) / Fold change /veh REEP3 (11722064_at) / RFU IGLL1 (11728026_x_at) / Fold change /veh IGLL1 (11728026_x_at): dose or concentration left out as unconfirmed
# Conditions: MV-4-11 cells, 48 hours
smiles,measurement,value
Nc1ncn([C@@H]2O[C@H](CO)[C@@H](O)[C@H]2O)c(=O)n1 [azacitidine],RFU ARHGAP8 /// PRR5-ARHGAP8 (11727945_x_at),97.01 RFU
